Source: ChEMBL document CHEMBL5143606, “Selective Wee1 degradation by PROTAC degraders recruiting VHL and CRBN E3 ubiquitin ligases” (Bioorg Med Chem Lett, 2022)
Values belong to the molecule of their own block, whether it stands above or below them. Active and inactive are the calls of the source. The rule behind the calls is not given here.

How the values were obtained:
[1] = target: T1, von Hippel-Lindau disease tumor suppressor/Wee1-like protein kinase (Homo sapiens) (UniProt P30291+P40337); experiment: PROTAC activity at VHL/Wee1 in human MCF7 cells assessed as induction of Wee1 degradation at 300 nM and above concentrations measured after 4 hrs by Western blot analysis; assay type: cell-based
[2] = target: T1, von Hippel-Lindau disease tumor suppressor/Wee1-like protein kinase (Homo sapiens); experiment: PROTAC activity at VHL/Wee1 in human HeLa S3 cells assessed as induction of Wee1 degradation at 1 uM measured after 4 hrs by Western blot analysis; assay type: cell-based
[3] = target: T1, von Hippel-Lindau disease tumor suppressor/Wee1-like protein kinase (Homo sapiens); experiment: PROTAC activity at VHL/Wee1 in human BT-549 cells assessed as induction of Wee1 degradation by measuring reduction in CDK1 phosphorylation at Tyr15 residue at 300 nM and above concentrations measured after 4 hrs by Western blot analysis; assay type: cell-based; conditions: MCF7
[4] = target: T1, von Hippel-Lindau disease tumor suppressor/Wee1-like protein kinase (Homo sapiens); experiment: PROTAC activity at VHL/Wee1 in human BT-549 cells assessed as induction of Wee1 degradation by measuring reduction in CDK1 phosphorylation at Tyr15 residue at 100 nM and above concentrations measured after 4 hrs by Western blot analysis; assay type: cell-based
[5] = target: T1, von Hippel-Lindau disease tumor suppressor/Wee1-like protein kinase (Homo sapiens); experiment: PROTAC activity at VHL/Wee1 in human LNCaP cells assessed as induction of Wee1 degradation at 300 nM and above concentrations measured after 4 hrs by Western blot analysis; assay type: cell-based
[6] = tested on: BT-549; experiment: Antiproliferative activity against human BT-549 cells assessed as inhibition of cell growth measured after 72 hrs by MTS assay; assay type: functional, cell-based; conditions: BT-549, 72 h
[7] = target: T1, von Hippel-Lindau disease tumor suppressor/Wee1-like protein kinase (Homo sapiens); experiment: PROTAC activity at VHL/Wee1 in human HeLa S3 cells assessed as induction of Wee1 degradation at 30 to 3000 nM measured after 4 hrs by Western blot analysis; assay type: cell-based; conditions: dose 30-3000 nM
[8] = target: T1, von Hippel-Lindau disease tumor suppressor/Wee1-like protein kinase (Homo sapiens); experiment: PROTAC activity at VHL/Wee1 in human HeLa S3 cells assessed as induction of Wee1 degradation by measuring reduction in phosphorylation of CDK1 at Tyr15 residue at 30 to 10000 nM measured after 4 hrs by Western blot analysis; assay type: cell-based; conditions: dose 30-10000 nM
[9] = tested on: MCF7; experiment: Antiproliferative activity against human MCF7 cells assessed as inhibition of cell growth measured after 72 hrs by MTS assay; assay type: functional, cell-based; conditions: MCF7, 72 h
[10] = target: T1, von Hippel-Lindau disease tumor suppressor/Wee1-like protein kinase (Homo sapiens); experiment: PROTAC activity at VHL/Wee1 in human HeLa S3 cells assessed as induction of Wee1 degradation by measuring reduction in phosphorylation of CDK1 at Tyr15 residue at 1 uM pretreated with AZD1775 for 2 hrs followed by incubation with compound for 5 hrs by Western blot analysis; assay type: cell-based
[11] = target: T1, von Hippel-Lindau disease tumor suppressor/Wee1-like protein kinase (Homo sapiens); experiment: PROTAC activity at VHL/Wee1 in human HeLa S3 cells assessed as induction of Wee1 degradation at 1 uM pretreated with VH298 for 2 hrs followed by incubation with compound for 5 hrs by Western blot analysis; assay type: cell-based
[12] = target: T1, von Hippel-Lindau disease tumor suppressor/Wee1-like protein kinase (Homo sapiens); experiment: PROTAC activity at VHL/Wee1 in human HeLa S3 cells assessed as induction of Wee1 degradation at 1 uM measured after 24 hrs by Western blot analysis relative to control; assay type: cell-based
[13] = target: T1, von Hippel-Lindau disease tumor suppressor/Wee1-like protein kinase (Homo sapiens); experiment: PROTAC activity at VHL/Wee1 in human PC-3 cells assessed as induction of Wee1 degradation at 100 nM and above concentrations measured after 4 hrs by Western blot analysis; assay type: cell-based
[14] = target: T1, von Hippel-Lindau disease tumor suppressor/Wee1-like protein kinase (Homo sapiens); experiment: PROTAC activity at VHL/Wee1 in human LNCaP cells assessed as induction of Wee1 degradation by measuring reduction in CDK1 phosphorylation at Tyr15 residue at 300 nM and above concentrations measured after 4 hrs by Western blot analysis; assay type: cell-based
[15] = target: T1, von Hippel-Lindau disease tumor suppressor/Wee1-like protein kinase (Homo sapiens); experiment: PROTAC activity at VHL/Wee1 in human HeLa S3 cells assessed as induction of Wee1 degradation by measuring reduction in phosphorylation of CDK1 at Tyr15 residue at higher concentration measured after 4 hrs by Western blot analysis; assay type: cell-based
[16] = target: T1, von Hippel-Lindau disease tumor suppressor/Wee1-like protein kinase (Homo sapiens); experiment: PROTAC activity at VHL/Wee1 in human HeLa S3 cells assessed as induction of Wee1 degradation at 1 uM measured after 24 to 48 hrs by Western blot analysis; assay type: cell-based; conditions: time 24-48 hrs
[17] = target: T1, von Hippel-Lindau disease tumor suppressor/Wee1-like protein kinase (Homo sapiens); experiment: PROTAC activity at VHL/Wee1 in human HeLa S3 cells assessed as induction of Wee1 degradation by measuring reduction in phosphorylation of CDK1 at Tyr15 residue at 1 uM measured after 24 hrs by Western blot analysis relative to control; assay type: cell-based; design: scale not given: the % may be the effect or the level left
[18] = tested on: LNCaP; experiment: Antiproliferative activity against human LNCaP cells assessed as inhibition of cell growth measured after 72 hrs by MTS assay; assay type: functional, cell-based
[19] = target: T1, von Hippel-Lindau disease tumor suppressor/Wee1-like protein kinase (Homo sapiens); experiment: PROTAC activity at VHL/Wee1 in human BT-549 cells assessed as induction of Wee1 degradation at 100 nM and above concentrations measured after 4 hrs by Western blot analysis; assay type: cell-based
[20] = target: T1, von Hippel-Lindau disease tumor suppressor/Wee1-like protein kinase (Homo sapiens); experiment: PROTAC activity at VHL/Wee1 in human PC-3 cells assessed as induction of Wee1 degradation by measuring reduction in CDK1 phosphorylation at Tyr15 residue at 100 nM and above concentrations measured after 4 hrs by Western blot analysis; assay type: cell-based
[21] = tested on: PC-3; experiment: Antiproliferative activity against human PC-3 cells assessed as inhibition of cell growth measured after 72 hrs by MTS assay; assay type: functional, cell-based; conditions: PC-3, 72 h
[22] = target: T2, Protein cereblon/Wee1-like protein kinase (Homo sapiens) (UniProt P30291+Q96SW2); experiment: PROTAC activity at CRBN/Wee1 in human HeLa S3 cells assessed as induction of Wee1 degradation by measuring reduction in phosphorylation of CDK1 at Tyr15 residue at 1 uM pretreated with AZD1775 for 2 hrs followed by incubation with compound for 5 hrs by Western blot analysis; assay type: cell-based
[23] = target: T2, Protein cereblon/Wee1-like protein kinase (Homo sapiens); experiment: PROTAC activity at CRBN/Wee1 in human PC-3 cells assessed as induction of Wee1 degradation by measuring reduction in CDK1 phosphorylation at Tyr15 residue at 100 nM and above concentrations measured after 4 hrs by Western blot analysis; assay type: cell-based
[24] = target: T2, Protein cereblon/Wee1-like protein kinase (Homo sapiens); experiment: PROTAC activity at CRBN/Wee1 in human BT-549 cells assessed as induction of Wee1 degradation by measuring reduction in CDK1 phosphorylation at Tyr15 residue at 300 nM and above concentrations measured after 4 hrs by Western blot analysis; assay type: cell-based; conditions: MCF7
[25] = target: T2, Protein cereblon/Wee1-like protein kinase (Homo sapiens); experiment: PROTAC activity at CRBN/Wee1 in human LNCaP cells assessed as induction of Wee1 degradation at 300 nM and above concentrations measured after 4 hrs by Western blot analysis; assay type: cell-based
[26] = target: T2, Protein cereblon/Wee1-like protein kinase (Homo sapiens); experiment: PROTAC activity at CRBN/Wee1 in human MCF7 cells assessed as induction of Wee1 degradation at 300 nM and above concentrations measured after 4 hrs by Western blot analysis; assay type: cell-based
[27] = target: T2, Protein cereblon/Wee1-like protein kinase (Homo sapiens); experiment: PROTAC activity at CRBN/Wee1 in human HeLa S3 cells assessed as induction of Wee1 degradation at 30 to 10000 nM measured after 4 hrs by Western blot analysis; assay type: cell-based; conditions: dose 30-10000 nM
[28] = target: T2, Protein cereblon/Wee1-like protein kinase (Homo sapiens); experiment: PROTAC activity at CRBN/Wee1 in human HeLa S3 cells assessed as induction of Wee1 degradation by measuring reduction in phosphorylation of CDK1 at Tyr15 residue at 100 to 10000 nM measured after 4 hrs by Western blot analysis; assay type: cell-based; conditions: dose 100-10000 nM
[29] = target: T2, Protein cereblon/Wee1-like protein kinase (Homo sapiens); experiment: PROTAC activity at CRBN/Wee1 in human LNCaP cells assessed as induction of Wee1 degradation by measuring reduction in CDK1 phosphorylation at Tyr15 residue at 300 nM and above concentrations measured after 4 hrs by Western blot analysis; assay type: cell-based
[30] = target: T2, Protein cereblon/Wee1-like protein kinase (Homo sapiens); experiment: PROTAC activity at CRBN/Wee1 in human HeLa S3 cells assessed as induction of Wee1 degradation at 1 uM pretreated with pomalidomide for 2 hrs followed by incubation with compound for 5 hrs by Western blot analysis; assay type: cell-based
[31] = target: T2, Protein cereblon/Wee1-like protein kinase (Homo sapiens); experiment: PROTAC activity at CRBN/Wee1 in human HeLa S3 cells assessed as induction of Wee1 degradation at 1 uM measured after 24 hrs by Western blot analysis relative to control; assay type: cell-based
[32] = target: T2, Protein cereblon/Wee1-like protein kinase (Homo sapiens); experiment: PROTAC activity at CRBN/Wee1 in human BT-549 cells assessed as induction of Wee1 degradation by measuring reduction in CDK1 phosphorylation at Tyr15 residue at 100 nM and above concentrations measured after 4 hrs by Western blot analysis; assay type: cell-based
[33] = target: T2, Protein cereblon/Wee1-like protein kinase (Homo sapiens); experiment: PROTAC activity at CRBN/Wee1 in human PC-3 cells assessed as induction of Wee1 degradation at 100 nM and above concentrations measured after 4 hrs by Western blot analysis; assay type: cell-based
[34] = target: T2, Protein cereblon/Wee1-like protein kinase (Homo sapiens); experiment: PROTAC activity at CRBN/Wee1 in human HeLa S3 cells assessed as induction of Wee1 degradation by measuring reduction in phosphorylation of CDK1 at Tyr15 residue at 1 uM measured after 24 hrs by Western blot analysis relative to control; assay type: cell-based; design: scale not given: the % may be the effect or the level left
[35] = target: T2, Protein cereblon/Wee1-like protein kinase (Homo sapiens); experiment: PROTAC activity at CRBN/Wee1 in human HeLa S3 cells assessed as induction of Wee1 degradation at 1 uM measured after 4 hrs by Western blot analysis; assay type: cell-based
[36] = target: T2, Protein cereblon/Wee1-like protein kinase (Homo sapiens); experiment: PROTAC activity at CRBN/Wee1 in human BT-549 cells assessed as induction of Wee1 degradation at 100 nM and above concentrations measured after 4 hrs by Western blot analysis; assay type: cell-based

Activity [1]: Active | Activity [2]: Active | Activity [3]: Active | Activity [4]: Active | Activity [5]: Active | IC50 [6]: 2.4 µM | Activity [7]: Active | Activity [8]: Active | IC50 [9]: 7 µM | Activity [10]: Active | Activity [11]: Active | Activity [12]: 34% | Activity [13]: Active | Activity [14]: Active | Activity [15]: Active | Activity [16]: Active | Activity [17]: 49% | IC50 [18]: 5.2 µM | Activity [19]: Active | Activity [20]: Active | IC50 [21]: > 20 µM
SMILES: C=CCn1c(=O)c2cnc(Nc3ccc(N4CCN(CCCC(=O)N[C@H](C(=O)N5C[C@H](O)C[C@H]5C(=O)NCc5ccc(-c6scnc6C)cc5)C(C)(C)C)CC4)cc3)nc2n1-c1cccc(C(C)(C)O)n1

Activity [22]: Active | Activity [23]: Active | Activity [24]: Active | Activity [25]: Active | IC50 [6]: 7.9 µM | Activity [26]: Active | Activity [27]: Active | Activity [28]: Active | IC50 [9]: 14 µM | Activity [29]: Active | Activity [30]: Active | Activity [31]: 27% | IC50 [18]: 16.6 µM | Activity [32]: Active | Activity [33]: Active | Activity [34]: 51% | Activity [35]: Active | Activity [36]: Active | IC50 [21]: > 20 µM
SMILES: C=CCn1c(=O)c2cnc(Nc3ccc(N4CCN(CCCC(=O)NCCOCCOCCNc5cccc6c5C(=O)N(C5CCC(=O)NC5=O)C6=O)CC4)cc3)nc2n1-c1cccc(C(C)(C)O)n1 (stereo not given)
